# Data published in article PMC9315260, “Diarylamine-Guided Carboxamide Derivatives: Synthesis, Biological Evaluation, and Potential Mechanism of Action” (Frontiers in Chemistry, 2022).
# What was measured:
# [1] = tested on: A875 (human melanoma cell line); test: MTT in vitro cytotoxicity assay, A875; format: cell-based; conditions: for IC50: A875, Table 3, MTT, mean ± S.D.; for inhibition at 100 µM: A875, at 100 µM, read-out: Cell growth inhibition (%) A875
# Procedure: (§1) The lead molecules A2 and all newly prepared diarylamine derivatives B1-13 and C1-11 were evaluated for their in vitro cytotoxic effects against SGC-7901, A875, HepG2 and MARC145 cell lines by the classical MTT [3-(4,5-dimethylthiazol-2-yl)-2,5-diphenyl tetrazolium bromide] assay ([Alley et al., 1988]; [Ke et al., 2012]; [Shi et al., 2012]; [Yu et al., 2015]; [Ke et al., 2019]; [Xu et al., 2019]; [Huang et al., 2021]) using 5-FU (5-Fluorouracil) as a control.
# (§2) The cytotoxicity of target compounds was determined with MTT assay ([Alley et al., 1988]; [Ke et al., 2012]; [Shi et al., 2012]; [Yu et al., 2015]; [Ke et al., 2019]; [Xu et al., 2019]; [Huang et al., 2021]). SGC-7901, A875, HepG2 and MARC145 cell lines were obtained from Hubei Biopesticide Engineering Research Centre. All data of the experiment were analyzed with SPSS software, and all assay were performed in triplicate on three independent experiments, and measurement data were expressed as the mean ± S.D.
# (§3) The in vitro cytotoxicity of the synthesized compounds against different cell lines (SGC-7901, A875, HepG2 and MARC145) was measured with MTT assay. All the data of the experiment were analyzed with SPSS software, and the 50% inhibitory concentrations (IC50) of each compound for the different cell lines were determined. A control was run for each test, and all assays were performed in triplicate on three independent experiments, and measurement data were expressed as the mean ± S.D.
# AKT1 = AKT1 (Homo sapiens, UniProt P31749); test: ADP-GLO kinase inhibitory assay, AKT1; format: biochemical
# AKT1, sequence (P31749 whole entry, species assumed): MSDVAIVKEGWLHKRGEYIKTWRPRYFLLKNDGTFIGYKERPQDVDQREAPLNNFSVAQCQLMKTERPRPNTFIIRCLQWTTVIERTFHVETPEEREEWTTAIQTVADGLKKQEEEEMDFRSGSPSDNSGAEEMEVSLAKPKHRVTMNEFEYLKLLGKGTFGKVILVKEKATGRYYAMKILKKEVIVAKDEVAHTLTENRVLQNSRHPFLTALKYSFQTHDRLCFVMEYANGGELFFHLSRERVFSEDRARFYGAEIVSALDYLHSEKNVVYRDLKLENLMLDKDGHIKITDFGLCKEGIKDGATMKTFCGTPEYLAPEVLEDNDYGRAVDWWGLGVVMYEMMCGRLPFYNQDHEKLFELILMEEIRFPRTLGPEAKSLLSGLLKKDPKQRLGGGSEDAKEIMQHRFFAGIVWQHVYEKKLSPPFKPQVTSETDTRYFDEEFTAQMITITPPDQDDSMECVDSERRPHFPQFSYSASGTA
# Procedure: (§4) Based on the aforementioned results for the potential mechanism of action, the kinase inhibitory profile of compounds C6 and C11 were screened at two dose concentration of 10 and 1 µM over a panel of 15 kinases, and the kinase inhibitory activities are listed in supporting information (Supplementary Table S1).
# (§5) The kinase inhibitory profile of compounds C6 and C11 were screened at two dose concentration of 10 and 1 µM over a panel of 15 kinases, and each assay was repeated twice. All the inhibitory assays were carried out through kinase profiling services provided by HY Biotech (Chinese), in which ADP-GLO kinase assays were used.
# as §5, with “10 µM” for “10”
# CDK1/A2 = CDK1/A2 (Homo sapiens, UniProt P06493); test: ADP-GLO kinase inhibitory assay, CDK1/A2; format: biochemical
# CDK1/A2, sequence (P06493 whole entry, species assumed): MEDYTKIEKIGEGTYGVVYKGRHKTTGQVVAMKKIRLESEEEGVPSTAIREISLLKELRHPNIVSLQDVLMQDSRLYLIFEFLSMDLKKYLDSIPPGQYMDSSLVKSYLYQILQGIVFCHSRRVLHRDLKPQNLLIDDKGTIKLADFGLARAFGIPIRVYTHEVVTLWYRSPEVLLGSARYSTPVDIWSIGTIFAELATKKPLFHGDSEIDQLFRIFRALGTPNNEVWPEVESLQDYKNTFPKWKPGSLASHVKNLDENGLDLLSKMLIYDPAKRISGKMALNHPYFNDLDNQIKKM
# CDK1/A2, sequence (P20248 whole entry partner, species assumed): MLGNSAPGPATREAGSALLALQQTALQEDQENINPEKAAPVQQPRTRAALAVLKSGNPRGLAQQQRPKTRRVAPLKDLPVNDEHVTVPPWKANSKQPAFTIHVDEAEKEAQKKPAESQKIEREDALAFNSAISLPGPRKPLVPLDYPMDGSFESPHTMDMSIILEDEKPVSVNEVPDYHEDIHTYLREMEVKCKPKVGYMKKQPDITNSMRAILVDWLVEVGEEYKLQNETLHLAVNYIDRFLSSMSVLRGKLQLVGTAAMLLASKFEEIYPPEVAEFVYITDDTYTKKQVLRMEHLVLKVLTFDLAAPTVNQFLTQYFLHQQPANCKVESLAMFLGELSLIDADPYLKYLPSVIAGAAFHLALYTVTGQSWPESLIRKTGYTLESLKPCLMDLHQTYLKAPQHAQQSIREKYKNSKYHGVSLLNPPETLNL
# Procedure: as §4, §5
# as §5, with “10 µM” for “10”
# PLK1 = PLK1 (Homo sapiens, UniProt P53350); test: ADP-GLO kinase inhibitory assay, PLK1; format: biochemical
# PLK1, sequence (P53350 whole entry, species assumed): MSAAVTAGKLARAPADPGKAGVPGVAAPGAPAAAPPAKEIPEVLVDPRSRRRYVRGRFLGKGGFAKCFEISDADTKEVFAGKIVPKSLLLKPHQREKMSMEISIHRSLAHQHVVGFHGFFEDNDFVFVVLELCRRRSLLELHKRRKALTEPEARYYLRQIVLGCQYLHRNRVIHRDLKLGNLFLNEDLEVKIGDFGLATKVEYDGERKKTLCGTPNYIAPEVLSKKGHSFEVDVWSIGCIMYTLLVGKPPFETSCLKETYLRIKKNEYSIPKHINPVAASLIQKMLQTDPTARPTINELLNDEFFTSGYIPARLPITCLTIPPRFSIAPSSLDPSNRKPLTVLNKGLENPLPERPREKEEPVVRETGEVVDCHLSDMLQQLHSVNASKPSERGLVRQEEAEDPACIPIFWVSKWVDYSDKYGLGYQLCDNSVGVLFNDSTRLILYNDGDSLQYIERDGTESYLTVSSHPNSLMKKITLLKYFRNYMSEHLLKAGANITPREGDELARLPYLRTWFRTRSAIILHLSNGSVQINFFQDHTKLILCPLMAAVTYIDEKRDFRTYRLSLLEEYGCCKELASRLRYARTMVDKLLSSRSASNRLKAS
# Procedure: as §4, §5
# as §5, with “10 µM” for “10”
# PDK1 = target: T1, PDK1 (Homo sapiens, UniProt O15530); test: ADP-GLO kinase inhibitory assay, PDK1; format: biochemical
# T1 sequence (O15530 1-556): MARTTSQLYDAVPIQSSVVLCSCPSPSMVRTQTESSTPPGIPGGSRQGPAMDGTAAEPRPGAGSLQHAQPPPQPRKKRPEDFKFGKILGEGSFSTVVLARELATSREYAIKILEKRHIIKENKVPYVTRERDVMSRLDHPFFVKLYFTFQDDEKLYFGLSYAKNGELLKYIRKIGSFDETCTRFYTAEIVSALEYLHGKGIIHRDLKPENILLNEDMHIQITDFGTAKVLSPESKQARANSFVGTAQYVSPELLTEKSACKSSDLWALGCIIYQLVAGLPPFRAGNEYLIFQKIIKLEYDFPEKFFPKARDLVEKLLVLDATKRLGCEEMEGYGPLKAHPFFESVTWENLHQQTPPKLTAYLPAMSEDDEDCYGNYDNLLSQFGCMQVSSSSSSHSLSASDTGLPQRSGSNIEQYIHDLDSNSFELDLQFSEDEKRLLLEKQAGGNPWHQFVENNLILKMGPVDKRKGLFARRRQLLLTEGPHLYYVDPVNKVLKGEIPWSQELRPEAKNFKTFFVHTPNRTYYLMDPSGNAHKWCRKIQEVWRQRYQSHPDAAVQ
# Procedure: as §4, §5
# as §5, with “10 µM” for “10”
# PAK3 = PAK3 (Homo sapiens, UniProt O75914); test: ADP-GLO kinase inhibitory assay, PAK3; format: biochemical
# PAK3, sequence (O75914 whole entry, species assumed): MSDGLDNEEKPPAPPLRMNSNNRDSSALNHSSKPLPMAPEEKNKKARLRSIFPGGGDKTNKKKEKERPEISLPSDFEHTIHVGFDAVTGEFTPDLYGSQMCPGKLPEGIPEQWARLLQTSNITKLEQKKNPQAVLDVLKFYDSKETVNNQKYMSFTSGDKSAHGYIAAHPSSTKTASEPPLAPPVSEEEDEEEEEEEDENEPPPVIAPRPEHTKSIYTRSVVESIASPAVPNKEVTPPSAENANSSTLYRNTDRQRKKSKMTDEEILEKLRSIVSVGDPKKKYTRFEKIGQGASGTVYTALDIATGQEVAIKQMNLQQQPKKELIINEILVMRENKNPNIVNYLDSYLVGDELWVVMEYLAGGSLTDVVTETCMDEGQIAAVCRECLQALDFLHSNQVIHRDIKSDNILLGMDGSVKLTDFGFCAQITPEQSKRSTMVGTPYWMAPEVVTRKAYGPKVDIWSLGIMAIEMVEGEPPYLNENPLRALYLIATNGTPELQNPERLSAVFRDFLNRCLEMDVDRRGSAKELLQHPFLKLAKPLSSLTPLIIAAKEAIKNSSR
# Procedure: as §4, §5
# as §5, with “10 µM” for “10”
# AURORA = test: ADP-GLO kinase inhibitory assay, AURORA; format: biochemical
# Procedure: as §4, §5
# as §5, with “10 µM” for “10”
# AKT3 = AKT3 (Homo sapiens, UniProt Q9Y243); test: ADP-GLO kinase inhibitory assay, AKT3; format: biochemical
# AKT3, sequence (Q9Y243 whole entry, species assumed): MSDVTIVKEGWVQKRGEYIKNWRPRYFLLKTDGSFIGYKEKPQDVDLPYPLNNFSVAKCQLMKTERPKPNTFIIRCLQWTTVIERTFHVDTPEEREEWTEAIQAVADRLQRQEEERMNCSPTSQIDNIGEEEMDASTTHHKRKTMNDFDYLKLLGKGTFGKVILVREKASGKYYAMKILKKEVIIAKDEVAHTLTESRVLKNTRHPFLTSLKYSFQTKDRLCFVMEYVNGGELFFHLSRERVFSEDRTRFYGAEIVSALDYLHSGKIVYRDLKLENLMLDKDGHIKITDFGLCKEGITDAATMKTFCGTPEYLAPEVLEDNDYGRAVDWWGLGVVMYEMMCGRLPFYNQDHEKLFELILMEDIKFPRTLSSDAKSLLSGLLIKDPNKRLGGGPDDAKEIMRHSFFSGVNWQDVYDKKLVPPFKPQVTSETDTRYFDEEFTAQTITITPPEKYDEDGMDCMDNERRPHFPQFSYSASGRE
# Procedure: as §4, §5
# as §5, with “10 µM” for “10”
# MAPK1 = MAPK1 (Homo sapiens, UniProt P28482); test: ADP-GLO kinase inhibitory assay, MAPK1; format: biochemical; conditions: for inhibition of MAPK1, in words: at 1 μM
# MAPK1, sequence (P28482 whole entry, species assumed): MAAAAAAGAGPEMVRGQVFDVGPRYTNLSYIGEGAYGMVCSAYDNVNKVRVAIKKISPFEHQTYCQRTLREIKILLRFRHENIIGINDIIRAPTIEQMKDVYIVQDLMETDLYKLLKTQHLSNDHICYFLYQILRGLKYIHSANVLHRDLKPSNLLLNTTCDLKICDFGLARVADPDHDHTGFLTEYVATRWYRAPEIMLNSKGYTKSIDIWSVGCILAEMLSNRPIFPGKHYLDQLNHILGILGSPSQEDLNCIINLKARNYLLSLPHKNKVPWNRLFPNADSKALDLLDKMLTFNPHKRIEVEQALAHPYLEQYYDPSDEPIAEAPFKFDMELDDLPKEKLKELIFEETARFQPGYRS
# Procedure: as §4, §5
# as §5, with “10 µM” for “10”
# CHK1 = target: T2, CHK1 (Homo sapiens, UniProt O14757); test: ADP-GLO kinase inhibitory assay, CHK1; format: biochemical
# T2 sequence (O14757 1-476): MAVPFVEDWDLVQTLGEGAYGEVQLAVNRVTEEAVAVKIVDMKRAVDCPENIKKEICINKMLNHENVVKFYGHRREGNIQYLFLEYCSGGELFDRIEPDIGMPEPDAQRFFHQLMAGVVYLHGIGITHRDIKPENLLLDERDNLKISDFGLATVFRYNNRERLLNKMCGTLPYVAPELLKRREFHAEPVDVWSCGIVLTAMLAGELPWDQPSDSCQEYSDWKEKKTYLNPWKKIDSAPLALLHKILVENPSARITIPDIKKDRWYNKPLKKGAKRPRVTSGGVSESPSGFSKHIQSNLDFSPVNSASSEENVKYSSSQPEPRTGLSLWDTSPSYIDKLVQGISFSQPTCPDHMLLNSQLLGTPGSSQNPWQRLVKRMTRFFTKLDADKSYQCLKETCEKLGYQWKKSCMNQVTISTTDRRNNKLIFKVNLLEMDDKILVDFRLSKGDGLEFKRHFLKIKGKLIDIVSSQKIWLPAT
# Procedure: as §4, §5
# as §5, with “10 µM” for “10”
# [2] = tested on: SGC-7901 (human gastric cancer cell line); test: MTT in vitro cytotoxicity assay, SGC-7901; format: cell-based; conditions: for IC50: SGC-7901, Table 3, MTT, mean ± S.D.; for inhibition at 100 µM: SGC-7901, at 100 µM, read-out: Cell growth inhibition (%) SGC-7901
# Procedure: as §1, §2, §3
# DAPK1 = DAPK1 (Homo sapiens, UniProt P53355); test: ADP-GLO kinase inhibitory assay, DAPK1; format: biochemical
# DAPK1, sequence (P53355 whole entry, species assumed): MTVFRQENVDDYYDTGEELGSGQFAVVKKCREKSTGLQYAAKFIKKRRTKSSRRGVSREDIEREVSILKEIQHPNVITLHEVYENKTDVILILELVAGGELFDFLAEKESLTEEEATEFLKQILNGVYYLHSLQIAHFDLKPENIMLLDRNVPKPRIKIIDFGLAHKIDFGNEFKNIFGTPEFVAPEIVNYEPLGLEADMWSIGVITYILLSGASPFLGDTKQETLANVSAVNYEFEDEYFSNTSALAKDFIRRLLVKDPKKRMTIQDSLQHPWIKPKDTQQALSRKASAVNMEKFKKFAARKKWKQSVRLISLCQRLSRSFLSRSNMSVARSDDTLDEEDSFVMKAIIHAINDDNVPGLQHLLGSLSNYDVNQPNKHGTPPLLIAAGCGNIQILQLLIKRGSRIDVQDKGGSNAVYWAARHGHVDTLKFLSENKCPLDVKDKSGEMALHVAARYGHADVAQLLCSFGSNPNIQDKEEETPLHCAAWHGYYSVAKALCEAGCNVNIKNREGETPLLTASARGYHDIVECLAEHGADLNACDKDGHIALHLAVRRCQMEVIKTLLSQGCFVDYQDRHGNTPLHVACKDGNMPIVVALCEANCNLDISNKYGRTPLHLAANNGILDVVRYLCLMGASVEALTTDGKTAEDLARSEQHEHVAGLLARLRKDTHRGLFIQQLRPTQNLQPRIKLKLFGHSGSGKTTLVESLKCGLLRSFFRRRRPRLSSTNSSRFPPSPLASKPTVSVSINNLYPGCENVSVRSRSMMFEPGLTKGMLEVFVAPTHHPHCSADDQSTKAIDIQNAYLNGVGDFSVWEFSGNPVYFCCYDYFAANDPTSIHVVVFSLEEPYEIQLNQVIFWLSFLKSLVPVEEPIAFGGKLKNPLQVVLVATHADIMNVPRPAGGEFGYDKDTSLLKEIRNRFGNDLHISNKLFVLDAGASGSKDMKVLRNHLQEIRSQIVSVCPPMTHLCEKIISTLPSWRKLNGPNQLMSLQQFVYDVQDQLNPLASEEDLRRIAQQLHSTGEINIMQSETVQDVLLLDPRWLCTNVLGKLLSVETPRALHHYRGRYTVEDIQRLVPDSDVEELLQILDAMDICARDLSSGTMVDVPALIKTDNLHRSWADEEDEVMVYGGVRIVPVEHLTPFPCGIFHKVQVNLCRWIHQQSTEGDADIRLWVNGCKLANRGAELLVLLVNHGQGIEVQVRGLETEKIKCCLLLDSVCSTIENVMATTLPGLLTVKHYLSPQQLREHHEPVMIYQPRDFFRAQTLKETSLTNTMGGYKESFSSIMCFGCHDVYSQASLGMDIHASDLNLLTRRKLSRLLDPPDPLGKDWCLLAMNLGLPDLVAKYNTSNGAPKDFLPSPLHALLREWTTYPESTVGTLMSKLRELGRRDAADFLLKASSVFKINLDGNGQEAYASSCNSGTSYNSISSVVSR
# Procedure: as §4, §5
# as §5, with “10 µM” for “10”
inhibition at 1 µM (AKT1) [%],inhibition at 10 µM (AKT1) [%],inhibition at 1 µM (CDK1/A2) [%],inhibition at 10 µM (CDK1/A2) [%],inhibition at 1 µM (PLK1) [%],inhibition at 10 µM (PLK1) [%],inhibition at 1 µM (PDK1) [%],inhibition at 10 µM (PDK1) [%],inhibition at 1 µM (PAK3) [%],inhibition at 10 µM (PAK3) [%],Inhibition activity (%) AURORA (AURORA; 1 µM) [%],Inhibition activity (%) AURORA (AURORA; 10 µM) [%],inhibition at 1 µM (AKT3) [%],inhibition at 10 µM (AKT3) [%],inhibition at 1 µM (MAPK1) [%],inhibition at 10 µM (MAPK1) [%],"inhibition of MAPK1, in words (MAPK1)",inhibition at 1 µM (CHK1) [%],SMILES,IC50 [1] [µM],inhibition at 100 µM [1] [%],other results
13.3,-5.21,38.2,-7.23,7.32,2.02,20.3,10.9,11.8,8.14,9.65,12.58,20.1,-0.49,24.4,7.96,some inhibitions,19.5,"O=C(Nc1ccc(Cl)nc1)c1cccnc1Nc1cccc(C(F)(F)F)c1 [C11, N-(6-Chloropyridin-3-yl)-2-((3-(trifluoromethyl)phenyl)amino)nicotinamide]",12.3 ± 4.16,90.5 ± 3.7,"inhibition of CDK1/A2, in words (CDK1/A2; at 1 μM): some inhibitions; inhibition at 10 µM (CHK1): 3.66%; IC50 [2]: 9.13 ± 3.52 µM; inhibition at 100 µM [2]: 85.6 ± 4.3%; inhibition at 1 µM (DAPK1): -2.25%; inhibition at 10 µM (DAPK1): 6.49%"
10.4,-6.77,1.55,-3.82,5.21,-0.95,10.3,10.1,10.1,1.34,4.35,7.74,16.1,-2.65,28.8,17.6,certain inhibitions,10.2,"O=C(Nc1cccc(C(F)(F)F)c1)c1cccnc1Nc1cccc(C(F)(F)F)c1 [C6, N-(3-(Trifluoromethyl)phenyl)-2-((3-(trifluoromethyl)phenyl)amino)nicotinamide]",12.8 ± 1.99,91.5 ± 2.9,inhibition at 10 µM (CHK1): -0.18%; IC50 [2]: 5.53 ± 0.82 µM; inhibition at 100 µM [2]: 90.5 ± 3.8%; inhibition at 1 µM (DAPK1): 8.48%; inhibition at 10 µM (DAPK1): -7.18%
